Assay results as given in patent US12611395B2, “Use of carbamate compound for preventing or treating trigeminal neuralgia” (SK BIOPHARMACEUTICALS CO., LTD., priority 2016, dated 2026).

Legend:
[1] = patients treated for trigeminal neuralgia; cited from earlier work
[2] = system: rats in which trigeminal neuralgia was induced by the trigeminal nerve root compression; test: Air-puff test of mechanical allodynia in rats with trigeminal neuralgia induced by trigeminal nerve root compression; type: in vivo, rats (Sprague-Dawley); conditions: rat; for analgesic effect on mechanical allodynia induced by trigeminal nerve root compression: FIG. 2
Procedure: (§1) Mature male rats (Sprague-Dawley, 200-230 g) were used. The experimental animals were maintained under conditions of light-and-darkness cycle of 12 hours, a temperature of 22 to 25° C., a relative humidity of 40 to 60%, and free access to water and food.
Rats were anesthetized with a mixed solution of ketamine (40 mg/kg) and xylazine (4 mg/kg), fixed on a stereotaxic instrument, and 4% agar solution was injected into the left trigeminal nerve roots using a stainless steel injection tube to compress the trigeminal nerve roots. 10 μl of 4% agar solution was slowly injected over the trigeminal nerve roots for 5 seconds, and the injection tube was removed after 5 minutes and then sutured (Jeon H J. et. al., A novel trigeminal neuropathic pain model: compression of the trigeminal nerve root produces prolonged nociception in rats, Prog Neuropsychopharmacol Biol Psychiatry. 2012).
(§2) To observe the behavioral response, the animals were placed in a cage and adapted for 20 minutes in a quiet area, followed by an air-puff test to assess mechanical allodynia to air stimulation. Aggressive behaviors such as head movement to avoid air stimulation or biting in response to the air stimulation applied to the facial region which is dominated by the trigeminal nerve were used as evaluation criteria for the behavioral reflex. A total of 10 trials and 50% or more responses were considered as the threshold of stimulation.
(§3) On the 7th day after surgery, the test compound (10, 30 and 50 mg/kg) and carbamazepine (25 and 50 mg/kg) were intraperitoneally administered to the test animals in which allodynia had been induced. At 30 minutes, 60 minutes, 90 minutes, 2 hours, 3 hours, 4 hours and 6 hours after administration, the pharmacological effects of the drugs were evaluated by observing changes in the behavioral responses.
(§4) The effect of the compounds was expressed as mean±standard error, and statistical significance was recognized when data were p<0.05 difference using one-way ANOVA and Dunnett's test.

[3] = system: rats in which facial pain was induced by inferior alveolar nerve injury; test: Air-puff test of mechanical allodynia in rats with facial pain induced by inferior alveolar nerve injury; type: in vivo, rats (Sprague-Dawley); conditions: rat; for analgesic effect on mechanical allodynia induced by inferior alveolar nerve injury: FIG. 4
Procedure: as §1, §2
as §3, with “test compound (5, 10 and 20” for “test compound (10, 30 and 50”, “10 and 20 mg/kg) and” for “30 and 50 mg/kg) and”
as §4

[4] = system: formalin-induced pain behavioral response in rats; test: Formalin-induced facial pain behavioral response in rats; type: in vivo, rats (Sprague-Dawley); conditions: 5 and 20 mg/kg intraperitoneal 30 minutes before 5% formalin, rat, FIG. 5
Procedure: as §1
5% Formalin (50 μl) was injected subcutaneously into the vibrissa pad on the left facial area of the rats using an insulin syringe (31 gauge). The behavioral response of rubbing or scratching the maxillofacial area was observed from 10 minutes after injection, accumulating in a unit of 5 minutes, for a total of 35 minutes (Park M K. et. al., Peripheral administration of NR2 antagonists attenuates orofacial formalin-induced nociceptive behavior in rats, Prog Neuropsychopharmacol Biol Psychiatry, 2011).
The vehicle, the test compound (5 and 20 mg/kg) and carbamazepine (25 mg/kg) were intraperitoneally administered, and after 30 minutes 5% formalin was injected into the left facial area.
as §4

[5] = 30 and 50 mg/kg intraperitoneal
[6] = overall conclusion, intraperitoneal

Row | SMILES | patients with side effects drowsiness, ataxia, nausea and anorexia [1] | analgesic effect on mechanical allodynia induced by trigeminal nerve root compression ([2]; 25 mg/kg intraperitoneal) | analgesic effect on mechanical allodynia induced by trigeminal nerve root compression ([2]; 50 mg/kg intraperitoneal) | analgesic effect on mechanical allodynia induced by inferior alveolar nerve injury ([3]; 25 mg/kg intraperitoneal) | time after administration at which the analgesic effect completely disappeared ([3]; 50 mg/kg intraperitoneal) [h] | analgesic effect on mechanical allodynia induced by inferior alveolar nerve injury ([3]; 50 mg/kg intraperitoneal) | inhibition of mechanical allodynia induced by trigeminal nerve root compression ([2]; 30 and 50 mg/kg intraperitoneal, 7th day after surgery, FIG. 1) | time after administration for which analgesic effect was maintained [2, 5] [h] | time after administration from which analgesic effect could be observed [2, 5] [min] | analgesic action in the trigeminal neuralgia animal model compared with carbamazepine [2, 6] | pain behavioral response as compared with the vehicle-administered group [4] | time after administration from which significant pain-relieving effect was observed ([3]; 20 mg/kg intraperitoneal) [min] | time for which pain-relieving effect was maintained ([3]; 20 mg/kg intraperitoneal) [h] | inhibition of mechanical allodynia induced by inferior alveolar nerve injury ([3]; 5, 10 and 20 mg/kg intraperitoneal, 7th day after surgery, FIG. 3) | time after administration from which the effect was significant ([3]; 5 and 10 mg/kg intraperitoneal) [min] | time after administration up to which the effect was significant ([3]; 5 and 10 mg/kg intraperitoneal) [h] | analgesic action in the inferior alveolar nerve injury-induced facial pain model compared with carbamazepine [3, 6]
1 | NC(=O)N1c2ccccc2C=Cc2ccccc21 [carbamazepine, reference compound] | about 40% | no analgesic effect | transient low analgesic effect | no analgesic effect | 2 | significant analgesic effect |  |  |  |  |  |  |  |  |  |  | 
2 | NC(=O)O[C@@H](Cn1ncnn1)c1ccccc1Cl [test compound] |  |  |  |  |  |  | significantly inhibited | 6 | 60 | better analgesic action than carbamazepine | statistically significant decrease | 90 | 4 | significantly inhibited | 90 | 2 | equivalent to or greater than carbamazepine
